Measured values from PMC4926252 (Scientific Reports, 2016).
Where two headings read alike, the source gives them in different places.

How the values were obtained:
[1] = molecular target: T1, CtpH-LBD (Pseudomonas aeruginosa, UniProt G3XDA3); test: biochemical; type: binding; settings: for binding: titrated with 5 mM ligand
[2] = molecular target: PstS (Pseudomonas aeruginosa, UniProt G3XDA8); test: biochemical; type: binding; settings: for ΔH: 25 °C, unfolded/refolded PstS, 10 mM Tris/HCl pH 8.0
[3] = molecular target: T1, CtpH-LBD; settings: CtpH-LBD (51 μM) saturated with 5 mM Pi
[4] = molecular target: CtpL-LBD (Pseudomonas aeruginosa, UniProt Q9HUW6); settings: ITC
Method: E. coli BL21 (DE3) containing the expression plasmids were cultured in LB medium supplemented with 50 μg ml^−1 kanamycin at 30 °C until an OD660 of 0.6, at which point 0.1 mM IPTG was added. […] Pellets were resuspended in buffer A (30 mM Tris, 300 mM NaCl, 10 mM imidazole, 5% (v/v) glycerol, pH 7.0) and broken by French press at 1000 psi. […] Protein was diluted to 10 μM and refolded by two consecutive dialyses into 10 mM Tris/HCl, pH 8.0. Aggregated protein corresponding to misfolded species was removed by filtration using 0.22 μm cut-off filters.
The mean enthalpies from the injection of ligands into buffer were subtracted from titration data prior to analysis with the “One binding site model” of ORIGIN following the algorithm described in[51].

[5] = tested on: P. aeruginosa PAO1
[6] = molecular target: T1, CtpH-LBD; settings: sedimentation velocity and equilibrium, with and without Pi
[7] = tested on: P. aeruginosa PAO1; settings: cited from earlier work
[8] = molecular target: G3XDA3; test: AUC; sedimentation velocity of CtpH-LBD in the presence of 500 uM Pi; 45,000 rpm, 6 °C, polybuffer
[9] = molecular target: G3XDA3; test: AUC; sedimentation equilibrium of CtpH-LBD in the presence of Pi; 11,800, 18,100 and 31,000 rpm, 6 °C, polybuffer
[10] = molecular target: T2, PstS (PA5369), periplasmic phosphate-binding protein, recombinant (P. aeruginosa, UniProt G3XDA8 25-323); test: ITC; 5 uM Pi-loaded PstS in the cell titrated with 80 uM CtpL-LBD; 25 °C; one binding site model; means of three experiments; settings: both partners purified
T2 construct: also called Pi-loaded PstS; source: E. coli BL21 (DE3), overexpressed, purified (HisTrap)
T2 sequence: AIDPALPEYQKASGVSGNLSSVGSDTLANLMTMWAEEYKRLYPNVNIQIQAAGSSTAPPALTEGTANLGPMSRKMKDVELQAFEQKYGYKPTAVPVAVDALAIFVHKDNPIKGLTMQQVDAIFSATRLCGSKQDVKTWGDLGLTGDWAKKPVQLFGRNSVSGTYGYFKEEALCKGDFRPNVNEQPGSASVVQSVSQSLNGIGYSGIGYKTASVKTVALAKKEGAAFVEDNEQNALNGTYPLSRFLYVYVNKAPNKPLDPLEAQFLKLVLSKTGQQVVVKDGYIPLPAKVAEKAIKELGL

[11] = molecular target: T2, PstS (PA5369), periplasmic …; test: AUC; sedimentation velocity, 45,000 rpm, 6 °C, polybuffer; CtpL-LBD and PstS individually and as a mixture; c(s) method; settings: both partners purified

Question: With O=CC(O)COP(=O)(O)O (racemic) [DL-glyceraldehyde 3-phosphate] as the molecule, how does the KD ([1]; pH 7) read?
Answer: The KD was “No binding”.

Question: For O=C(O)[C@H](O)[C@@H](O)[C@H](O)[C@H](O)COP(=O)(O)O [6-phosphogluconate], which KD ([1]; pH 7) is on record?
Answer: Its KD is “No binding”.

Question: With Nc1ncnc2c1ncn2[C@@H]1O[C@H](COP(=O)(O)OP(=O)(O)O)[C@@H](O)[C@H]1O [ADP] as the molecule, how does the Kd [1] read?
Answer: The Kd was 103000 ± 21000 nM.

Question: And the ΔH ([1]; pH 7)?
Answer: Its ΔH is -2.7 ± 1 kcal/mol.

Question: With Nc1ncnc2c1ncn2[C@@H]1O[C@H](COP(=O)(O)O)[C@@H](O)[C@H]1O [AMP] as the molecule, how does the KD ([1]; pH 7) read?
Answer: The KD was “No binding”.

Question: Which results are given for Nc1ncnc2c1ncn2[C@@H]1O[C@H](COP(=O)(O)OP(=O)(O)OP(=O)(O)O)[C@@H](O)[C@H]1O [ATP]?
Answer: Kd [2]: 300 ± 100 nM; ΔH ([2]; ITC): -2.9 ± 0.1 kcal/mol; KD ([1]; pH 7): Binding ^1

Question: With O=C(CO)[C@@H](O)[C@H](O)[C@H](O)COP(=O)(O)O [D-fructose 6-phosphate] as the molecule, how does the KD ([1]; pH 7) read?
Answer: The KD was “No binding”.

Question: With O=C[C@H](O)[C@@H](O)[C@H](O)[C@H](O)COP(=O)(O)O [D-glucose 6-phosphate] as the molecule, how does the KD ([1]; pH 7) read?
Answer: The KD was “No binding”.

Question: Which ΔH of unfolding ([3]; without Pi 28.2 kcal/mol) does the source give for O=P(O)(O)O [Pi, K2HPO4] here?
Answer: The ΔH of unfolding was 39.9 + /−1.5 kcal/mol.

Question: What about the Tm ([3]; without Pi 46.9 °C) of the same molecule?
Answer: Its Tm is 56.6 + /−0.2 °C.

Question: And the binding ([4]; CtpL-LBD denatured, dialyzed and refolded)?
Answer: Its binding is “did not show any Pi binding”.

Question: And the KD ([4]; conducted at different temperatures)?
Answer: The KD was “No binding”.

Question: What about the Kd [2] of the same molecule?
Answer: Its Kd is 7 ± 1 nM.

Question: And the ΔH ([2]; ITC)?
Answer: Its ΔH is -5.1 ± 0.1 kcal/mol.

Question: And the binding ([2]; ITC, PstS as purified from E. coli, before unfolding/refolding)?
Answer: The binding was “no binding”.

Question: What about the TΔS ([2]; ITC, refolded PstS) of the same molecule?
Answer: Its TΔS is 6.0 ± 0.1 kcal/mol.

Question: What about the n-value ([2]; ITC, refolded PstS) of the same molecule?
Answer: Its n-value is 0.29 ± 0.02.

Question: And the chemotaxis ([5]; ctpH mutant, 0.01 mM Pi)?
Answer: Its chemotaxis is “no significant changes”.

Question: What about the chemotaxis ([5]; ctpH mutant, 0.1 and 10 mM Pi) of the same molecule?
Answer: The chemotaxis was “compromised chemotaxis”.

Question: And the chemotaxis ([5]; pstS deletion mutant, low Pi (0.01 and 0.1 mM))?
Answer: The chemotaxis was “dramatically reduced chemotaxis”.

Question: And the chemotaxis ([5]; pstS mutant, high Pi (10 mM))?
Answer: The chemotaxis was “did not greatly affect chemotaxis”.

Question: What about the chemotaxis ([5]; pstS/ctpH double mutant) of the same molecule?
Answer: The chemotaxis was “only very marginal Pi chemotaxis”.

Question: What about the “effect on oligomeric state of CtpH-LBD” value [6] of the same molecule?
Answer: Its value is “causes CtpH-LBD dimerization”.

Question: Which KD ([1]; ITC, 25 °C, polybuffer pH 7.0) does the source give for O=[As](O)(O)O [arsenate] here?
Answer: Its KD is “No binding”.

Question: What about the binding ([1]; ITC) of the same molecule?
Answer: Its binding is “did not bind”.

Question: What about the chemotaxis ([7]; Pi starved cells) of the same molecule?
Answer: Its chemotaxis is “attracted to arsenate”.

Question: What does the source list for O=[As][O-].[Na+] [arsenite]?
Answer: KD ([1]; ITC, 25 °C, polybuffer pH 7.0): No binding; binding ([1]; ITC): did not bind

Question: For C=C(OP(=O)(O)O)C(=O)O [phosphoenolpyruvate], which KD ([1]; pH 7) is on record?
Answer: The KD was “No binding”.

Question: Which Kd [2] does the source give for O=P(O)(O)OP(=O)(O)O [pyrophosphate] here?
Answer: The Kd was 2600 ± 300 nM.

Question: And the ΔH ([2]; ITC)?
Answer: Its ΔH is -8.3 ± 0.3 kcal/mol.

Question: What about the chemotaxis ([7]; P. aeruginosa) of the same molecule?
Answer: Its chemotaxis is “chemotaxis towards millimolar concentrations of pyrophosphate”.

B1: ligand binding domain of the chemoreceptor CtpH (CtpH-LBD) (protein)
chain: GSLTGDVRAYRELLGGPVRAAQLIDEANLQFRGQVQEWKNVLLRGRQTEAQTKYWSQFEAQERAVQDILGRLGSVAEGELKDRVERLREEHRRLGTAYRQGRQRFLEAGADPIAGDQAVTGIDRATTAQMQTLRDELHQASDLHSSSISAEARRT
Question: What does the source list for B1?
Answer: N with Pi [8]: dimer (39,566 Da); N with Pi (minor species) [8]: tetramer (79,132 Da); percent of the sedimenting material in the dimer peak, with Pi [8]: 86% of the sedimentation material; N with Pi [9]: 2

B2: ligand binding domain of the chemoreceptor CtpL (CtpL-LBD) (domain or fragment, P. aeruginosa, UniProt Q9HUW6 27-324, looked up)
chain: WSQRAMERPFQLLDQYLELSQRFDEQVARNIRQYLGSGDAVRQQAALQALESLAEALPELPPDLARTLAPSLAELREFSAGDLLAAGKLAGDPQGLLLQAERDLTGNLEQWSAYLDAAAGQPQAGAYRTPLLLASLHLTRLSLARAKLVESANPALAGDVERELANLREQAGRIEALPLLGVLDEQRSASDDFAAMMGLAGDAEAGAGNAEDRGVALRRELASLLQRYPDELRRTRDLIERRQQLSADTGARLDAVRQALATLEPQVRGERQRLQGQVRLIQGGMIALILLIALAIDS
notes: Cloned into pET28b(+); Held on a HisTrap column as bait in the pull-down; The discussion gives 286 amino acids for CtpL-LBD, whereas 27-324 is 298 residues; also called PA4844; source: E. coli BL21 (DE3), purified (HisTrap) from the soluble fraction
Question: What does the source list for B2?
Answer: dH [10]: -3.1 kcal/mol; stoichiometry N [11]: 1
